According to patent US10781431B2, “Cardiotonic steroid antagonists and related methods” (MARSHALL UNIVERSITY RESEARCH CORPORTION, priority 2014, dated 2020):
No end group written: not given here.

Columns and labels:
[1] = reconstituted in vitro system; previously demonstrated (PCT/US2011/021130); cited from earlier work
Na/K-ATPase α1 = biological target: T1, Na/K-ATPase α1 (Sus scrofa, UniProt P05024); experiment: tyrosine 260 phosphorylation of Na/K-ATPase, Western blot; format: cell-based; conditions: LLC-PK1 cells, 100 nM ouabain, FIG. 4C
T1 construct: in normal LLC-PK1 cells, tyrosine 260 of full length Na/K-ATPase was phosphorylated; endogenous in cells; host or cells: LLC-PK1
Method: FIGS. 4A-4C include a schematic diagram and images relating to the phosphorylation of Y260 in CD2, FIG. 4A is a schematic diagram showing CD2 sequence from Na/K-ATPase α1 subunit with the tentative Src SH2 domain binding region surrounding Y260 marked in a box (SEQ ID NO: 10). FIG. 4B is an image showing the results of an experiment where five hundred μg of total cell lysate was immunoprecipitated with 10 μg anti-Src antibody and immunoprecipitates were subjected to Western blot analysis of tyrosine 260 phosphorylation using an anti-phosphotyrosine 260 Na/K-ATPase α1 antibody, and where the same membrane was stripped and probed for YFP. FIG. 4C includes images showing the results of an experiment where LLC-PK1 cells were grown up to 100% confluence and then serum starved overnight and treated with 100 nM ouabain for the indicated times and then western blotted by probing for pY260 α1 Na/K-ATPase and a 1 Na/K-ATPase, […] Src and total Src.
In view of the foregoing findings, experiments were then undertaken to develop a highly specific peptide antagonist for disrupting the CD2/SH2 interaction in order to inhibit the cardiotonic steroid-mediated signaling, in cells. […] As depicted in FIG. 4B, CD2 was capable of being phosphorylated when it was expressed in cells.

Compound | ouabain antagonism [1] | phosphorylation of tyrosine 260 of full length Na/K-ATPase (Na/K-ATPase α1)
CD2C2: peptide derived from CD2, non-phosphorylated; SEQ ID NO: 1 in PCT/US2011/021130 (STNCVEGTARGIVVYTGD; not fully specified (residue 15); listed as Homo sapiens) | effective ouabain antagonist | 
C[C@@H]1O[C@@H](O[C@H]2C[C@@H](O)[C@]3(CO)[C@H]4[C@H](O)C[C@]5(C)[C@@H](C6=CC(=O)OC6)CC[C@]5(O)[C@@H]4CC[C@]3(O)C2)[C@H](O)[C@H](O)[C@H]1O [ouabain] |  | increased the phosphorylation in a time-dependent manner
